Our source for the IC50 values is patent US20230183292A1, “IMMUNOMODULATORS” (priority 2020, published 2023).

pIC50: −log10 of the molar value. Positions of bridges follow the written chain, without caps; N, C: chain ends. Non-standard residues stand in square brackets, D forms with d. Residues, ends and D or L forms follow the SMILES beside them. *: point of attachment. X21 = CC[C@H]1[C@@H](O)[C@@H]2[C@H](CC[C@]3(C)[C@@H]([C@H](C)CCC(=O)*)CC[C@@H]23)[C@@]2(C)CC[C@@H](O)C[C@@H]12; Chenodeoxycholyl = C[C@H](CCC(=O)*)[C@H]1CC[C@H]2[C@@H]3[C@H](O)C[C@@H]4C[C@H](O)CC[C@]4(C)[C@H]3CC[C@]12C; X24 = C[C@H](CCC(=O)*)[C@H]1CC[C@H]2[C@@H]3[C@H](O)[C@H](O)[C@@H]4C[C@H](O)CC[C@]4(C)[C@H]3CC[C@]12C; X23 = C[C@H](CCC(=O)*)[C@H]1CC[C@H]2[C@@H]3C(=O)[C@H](O)[C@@H]4C[C@H](O)CC[C@]4(C)[C@H]3CC[C@]12C; X19 = C[C@H](CCC(=O)*)[C@H]1CC[C@H]2[C@@H]3CC(=O)[C@@H]4C[C@H](O)CC[C@]4(C)[C@H]3CC[C@]12C; X33 = C[C@H](CCC(=O)*)[C@H]1CC[C@H]2[C@@H]3C(=O)C[C@@H]4C[C@H](O)CC[C@]4(C)[C@H]3CC[C@]12C; Trp(1-CH2COOH) = N[C@@H](Cc1cn(CC(=O)O)c2ccccc12)C(=O)O; Hyp = O=C(O)[C@@H]1C[C@@H](O)CN1; NMeNle = CCCC[C@H](NC)C(=O)O; NMeA = CN[C@@H](C)C(=O)O; Dab = NCC[C@H](N)C(=O)O; Dap = NC[C@H](N)C(=O)O

T1 sequence (Q9NZQ7 18-239): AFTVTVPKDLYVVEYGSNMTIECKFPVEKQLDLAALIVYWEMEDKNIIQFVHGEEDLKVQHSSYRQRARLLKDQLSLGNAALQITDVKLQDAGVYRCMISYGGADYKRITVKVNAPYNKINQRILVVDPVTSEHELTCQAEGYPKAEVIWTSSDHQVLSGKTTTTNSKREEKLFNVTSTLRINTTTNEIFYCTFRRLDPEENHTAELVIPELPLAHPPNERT

The test addresses T1, PD-1/PD-L1 (Homo sapiens, UniProt Q9NZQ7).
T1 construct: TVMV protease site (C); made in house; host or cells: HEK293T cells
Kind of test: PD-1/PD-L1 Homogenous Time-Resolved Fluorescence (HTRF) binding assay. The note with it: PD-L1-His 10 nM, PD-1-Ig 20 nM; read-out: HTRF IC50. An excerpt: The ability of the compounds of formula (I) to bind to PD-L1 was investigated using a PD-1/PD-L1 Homogenous Time-Resolved Fluorescence (HTRF) binding assay.
The interaction of PD-1 and PD-L1 can be assessed using soluble, purified preparations of the extracellular domains of the two proteins. The PD-1 and PD-L1 protein extracellular domains were expressed as fusion proteins with detection tags, for PD-1, the tag was the Fc portion of Immunoglobulin (PD-1-Ig) and for PD-L1 it was the 6 histidine motif (PD-L1-His). All binding studies were performed in an HTRF assay buffer consisting of dPBS supplemented with 0.1% […] bovine serum albumin and 0.05% (v/v) Tween-20. For the h/PD-L1-His binding assay, inhibitors were pre-incubated with PD-L1-His (10 nM final) for 15 m in 4 μl of assay buffer, followed by addition of PD-1-Ig (20 nM final) in 1 μl of assay buffer and further incubation for 15 m. HTRF detection was achieved using europium crypate-labeled anti-Ig (1 nM final) and allophycocyanin (APC) labeled anti-His (20 nM final). Antibodies were diluted in HTRF detection buffer and 5 μl was dispensed on top of the binding reaction. The reaction mixture was allowed to equilibrate for 30 minutes and the resulting signal (665 nm/620 nm ratio) was obtained using an EnVision fluorometer. Additional binding assays were established between the human proteins PD-1-Ig/PD-L2-His (20 & 5 nM, respectively) and CD80-His/PD-L1-Ig (100 & 10 nM, respectively).
Recombinant Proteins: Human PD-1 (25-167) with a C-terminal human Fc domain of immunoglobulin G (Ig) epitope tag [hPD-1 (25-167)-3S-IG] and human PD-L1 (18-239) with a C-terminal His epitope tag [hPD-L1(18-239)-TVMV-His] were expressed in HEK293T cells and purified sequentially by ProteinA affinity chromatography and size exclusion chromatography. Human PD-L2-His and CD80-His was obtained through commercial sources.
Table 1 lists the IC50 values for representative examples of this disclosure measured in the PD-1/PD-L1 Homogenous Time-Resolved Fluorescence (HTRF) binding assay.
On the technique in general: Time-resolved FRET reads energy transfer from a long-lived donor to a nearby acceptor.
As to `CCCC[C@H]1C(=O)N(C)[C@@H](CCCC)C(=O)N[C@@H](CC(C)C)C(=O)N[C@H](C(=O)NCC(N)=O)CSCC(=O)N[C@@H](Cc2ccc(O)cc2)C(=O)N(C)[C@@H](C)C(=O)N[C@@H](CC(N)=O)C(=O)N2CCC[C@H]2C(=O)N[C@@H](CNC(=O)CC[C@@H](C)[C@H]2CC[C@H]3[C@@H]4[C@H](O)C[C@@H]5C[C@H](O)CC[C@]5(C)[C@H]4CC[C@]23C)C(=O)N[C@@H](CC(C)C)C(=O)N2C[C@H](O)C[C@H]2C(=O)N[C@@H](Cc2c[nH]c3ccccc23)C(=O)N[C@@H](CCNC(=O)CC[C@@H](C)[C@H]2CC[C@H]3[C@@H]4[C@H](O)C[C@@H]5C[C@H](O)CC[C@]5(C)[C@H]4CC[C@]23C)C(=O)N[C@@H](Cc2cn(CC(=O)O)c3ccccc23)C(=O)N1C` [Example 1013] ({CH2CO}-Y[NMeA]NP[Dap](Chenodeoxycholyl)L[Hyp]W[Dab](Chenodeoxycholyl)[Trp(1-CH2COOH)][NMeNle][NMeNle]LCG-NH2; thioether N-14), the pIC50 (commonly the IC50 on a negative log10 scale, so that one unit is a factor of ten) is 6.34.

In the case of `CCCC[C@H]1C(=O)N(C)[C@@H](CCCC)C(=O)N[C@@H](CC(C)C)C(=O)N[C@H](C(=O)NCC(N)=O)CSCC(=O)N[C@@H](Cc2ccc(O)cc2)C(=O)N(C)[C@@H](C)C(=O)N[C@@H](CC(N)=O)C(=O)N2CCC[C@H]2C(=O)N[C@@H](CNC(=O)CC[C@@H](C)[C@H]2CC[C@H]3[C@@H]4[C@H](O)[C@H](CC)[C@@H]5C[C@H](O)CC[C@]5(C)[C@H]4CC[C@]23C)C(=O)N[C@@H](CC(C)C)C(=O)N2C[C@H](O)C[C@H]2C(=O)N[C@@H](Cc2c[nH]c3ccccc23)C(=O)N[C@@H](CCNC(=O)CC[C@@H](C)[C@H]2CC[C@H]3[C@@H]4[C@H](O)[C@H](CC)[C@@H]5C[C@H](O)CC[C@]5(C)[C@H]4CC[C@]23C)C(=O)N[C@@H](Cc2cn(CC(=O)O)c3ccccc23)C(=O)N1C` [Example 1014] ({CH2CO}-Y[NMeA]NP[Dap](X21)L[Hyp]W[Dab](X21)[Trp(1-CH2COOH)][NMeNle][NMeNle]LCG-NH2; thioether N-14), the pIC50 is 6.47.

For `CCCC[C@H]1C(=O)N(C)[C@@H](CCCC)C(=O)N[C@@H](CC(C)C)C(=O)N[C@H](C(=O)NCC(N)=O)CSCC(=O)N[C@@H](Cc2ccc(O)cc2)C(=O)N(C)[C@@H](C)C(=O)N[C@@H](CC(N)=O)C(=O)N2CCC[C@H]2C(=O)N[C@@H](CNC(=O)CC[C@@H](C)[C@H]2CC[C@H]3[C@@H]4C(=O)[C@H](O)[C@@H]5C[C@H](O)CC[C@]5(C)[C@H]4CC[C@]23C)C(=O)N[C@@H](CC(C)C)C(=O)N2C[C@H](O)C[C@H]2C(=O)N[C@@H](Cc2c[nH]c3ccccc23)C(=O)N[C@@H](CCNC(=O)CC[C@@H](C)[C@H]2CC[C@H]3[C@@H]4[C@H](O)[C@H](O)[C@@H]5C[C@H](O)CC[C@]5(C)[C@H]4CC[C@]23C)C(=O)N[C@@H](Cc2cn(CC(=O)O)c3ccccc23)C(=O)N1C` [Example 1015] ({CH2CO}-Y[NMeA]NP[Dap](X23)L[Hyp]W[Dab](X24)[Trp(1-CH2COOH)][NMeNle][NMeNle]LCG-NH2; thioether N-14), the negative-log IC50 (pIC50) is 8.03. Next, `CCCC[C@H]1C(=O)N(C)[C@@H](CCCC)C(=O)N[C@@H](CC(C)C)C(=O)N[C@H](C(=O)NCC(N)=O)CSCC(=O)N[C@@H](Cc2ccc(O)cc2)C(=O)N(C)[C@@H](C)C(=O)N[C@@H](CC(N)=O)C(=O)N2CCC[C@H]2C(=O)N[C@@H](CNC(=O)CC[C@@H](C)[C@H]2CC[C@H]3[C@@H]4C(=O)C[C@@H]5C[C@H](O)CC[C@]5(C)[C@H]4CC[C@]23C)C(=O)N[C@@H](CC(C)C)C(=O)N2C[C@H](O)C[C@H]2C(=O)N[C@@H](Cc2c[nH]c3ccccc23)C(=O)N[C@@H](CCNC(=O)CC[C@@H](C)[C@H]2CC[C@H]3[C@@H]4C(=O)C[C@@H]5C[C@H](O)CC[C@]5(C)[C@H]4CC[C@]23C)C(=O)N[C@@H](Cc2cn(CC(=O)O)c3ccccc23)C(=O)N1C` [Example 1016] ({CH2CO}-Y[NMeA]NP[Dap](X33)L[Hyp]W[Dab](X33)[Trp(1-CH2COOH)][NMeNle][NMeNle]LCG-NH2; thioether N-14): 7.92; `CCCC[C@H]1C(=O)N(C)[C@@H](CCCC)C(=O)N[C@@H](CC(C)C)C(=O)N[C@H](C(=O)NCC(N)=O)CSCC(=O)N[C@@H](Cc2ccc(O)cc2)C(=O)N(C)[C@@H](C)C(=O)N[C@@H](CC(N)=O)C(=O)N2CCC[C@H]2C(=O)N[C@@H](CNC(=O)CC[C@@H](C)[C@H]2CC[C@H]3[C@@H]4CC(=O)[C@@H]5C[C@H](O)CC[C@]5(C)[C@H]4CC[C@]23C)C(=O)N[C@@H](CC(C)C)C(=O)N2C[C@H](O)C[C@H]2C(=O)N[C@@H](Cc2c[nH]c3ccccc23)C(=O)N[C@@H](CCNC(=O)CC[C@@H](C)[C@H]2CC[C@H]3[C@@H]4CC(=O)[C@@H]5C[C@H](O)CC[C@]5(C)[C@H]4CC[C@]23C)C(=O)N[C@@H](Cc2cn(CC(=O)O)c3ccccc23)C(=O)N1C` [Example 1017] ({CH2CO}-Y[NMeA]NP[Dap](X19)L[Hyp]W[Dab](X19)[Trp(1-CH2COOH)][NMeNle][NMeNle]LCG-NH2; thioether N-14): 7.82.
